Reference: US9073961B2, “Substitution derivatives of N6 -benzyladenosine-5′-monophosphate, methods of preparation thereof, use thereof as medicaments, and therapeutic preparations containing these compounds” (UNIVERZITA PALACKEHO V OLOMOUCI, priority 2010, dated 2015)

Legend:
[1] = test system: cytokinin-dependent tobacco callus Nicotiana tabacum L. cv. Wisconsin 38; assay: Growth of cytokinin-dependent tobacco callus; assay type: cell-based; settings: for Activity (%) [10^−5 mol · l^−1 KR = 100%]: at concentration with highest activity, relative to control cytokinin; for Concentration with highest activity: tobacco callus fresh weight after four weeks
Method: Cytokinin effect of newly prepared derivatives was tested using cytokinin-dependent tobacco callus. The cytokinin-dependent tobacco callus Nicotiana tabacum L. cv. Wisconsin 38 was maintained at 25° C. in darkness on modified MS medium, containing per 1 liter: 4 μmol of nicotinic acid, 2.4 μmol of pyridoxine hydrochloride, 1.2 μmol of thiamine, 26.6 μmol of glycine, 1.37 μmol of glutamine, 1.8 μmol of myo-inositol, 30 g of sucrose, 8 g of agar, 5.37 μmol of NAA and 0.5 μmol of the compound tested. Subcultivation was carried out every three weeks. Fourteen days before the bioassay, the callus tissue was transferred to the media without 6-benzylaminopurine. The biological activity was determined from the increase of the fresh callus weight after four weeks of cultivation. Five replicates were prepared for each concentration of the compound tested and the entire test was repeated twice. […] The compounds to be tested were dissolved in dimethylsulfoxide (DMSO) and the solution brought up to 10^−3 M with distilled water. […] The stimulatory activity was calculated from the dose-dependent fresh weight callus growth curves.
From the obtained data, the concentration with the highest activity was selected for each compound tested. Relative activity of the compound at this concentration was calculated (Table 5). […]

[2] = test system: CEM (T-lymphoblastoid leukemia); assay: Calcein AM cytotoxicity assay, CEM; assay type: cell-based; settings: 72 hours incubation, Calcein AM
Text: (§1) Because toxic compounds negatively influence metabolic processes in cells, many standard cytotoxicity assays are based on measurement of metabolisation rate of various artificial substrates. Resulting product is then quantified e.g. by means of spectrometry. The assays can be easily modified for use in 96-well plates. For evaluation of cytotoxic effect of the novel substituted 9-substituted cytokinin derivatives of this invention, a microtiter assay based on quantification of metabolisation of Calcein AM was used. The assay is widely used in drug screening programs and in chemosensitivity testing. In the living cells, Calcein AM is enzymatically hydrolysed and accumulation of resulting calcein is manifested by green fluorescence.
(§2) In the routine screening the following cell lines have been used: CEM (T-lymphoblastoid leukemia), HL-60 (promyelocytic leukemia), K-562 (human erythroleukemia), MCF-7 (breast carcinoma), HOS (human osteogenic sarcoma), and G-361 (human malignant melanoma). Normal human fibroblasts BJ were used as a control for routine screening of the compounds. The cells were kept in Nunc/Corning 80 cm^2 plastic bottles and grown in cell culture medium (DMEM containing 5 g/l glucose, 2 mM glutamine, 100 U/ml penicilline, 100 μg/ml streptomycine, 10% fetal bovine serum and sodium hydrogencarbonate), the compounds were prepared according to the procedure of the present invention.
(§3) The cell suspensions were prepared and diluted according to the particular cell type and the expected target cell density (2.500-30.000 cells per well based on cell growth characteristics) and pippetted (80 μl) into 96-well plates. Inoculates were allowed a pre-incubation period of 24 hours at 37° C. and 5% CO2 for stabilisation. Tested compound was added in total volume of 20 μl of water at time zero. Usually, test compound was evaluated at six 3-fold dilutions. In routine testing, the highest concentration tested was 166.7 μM. All drug concentrations were tested in triplicates. Incubations of cells with the test compounds lasted for 72 hours at 37° C., in 5% CO2 atmosphere and 100% humidity. At the end of incubation period Calcein AM in PBS was added into final concentration of 1 μg/ml. After another 1 hour of incubation fluorescence (FD) was measured with the Labsystem FIA Reader Fluoroscan Ascent (Microsystems). Tumor cell survival (TCS) was estimated using the following equation: […]=(FDdrug exposed well/FDcontrol well)×100%. The GI50 value, the drug concentration causing 50% reduction of esterase activity, was calculated from the obtained dose response curves (FIG. 1).
(§4) Cytoxicity of novel compounds was tested on panel of cell lines of different histogenetic and species origin (Table 3). […] The effective novel derivatives killed tumour cells in concentrations close to 0.1-50 μM.

[3] = test system: K-562 (human erythroleukemia); assay: Calcein AM cytotoxicity assay, K-562; assay type: cell-based
Text: as §1, §2, §3, §4

[4] = test system: HOS (human osteogenic sarcoma); assay: Calcein AM cytotoxicity assay, HOS; assay type: cell-based; settings: 72 hours incubation
Text: as §1, §2, §3, §4

MCF-7 (breast carcinoma) = assay: Calcein AM cytotoxicity assay, MCF7; assay type: cell-based; settings: 72 hours incubation
Text: as §1, §2, §3, §4

[5] = test system: Normal human fibroblasts BJ; assay: Calcein AM cytotoxicity assay, BJ; assay type: cell-based; settings: 72 hours incubation
Text: as §1, §2, §3, §4

[6] = test system: HL-60 (promyelocytic leukemia); assay: Calcein AM cytotoxicity assay, HL60; assay type: cell-based, human
Text: as §1, §2, §3, §4

[7] = test system: G-361 (human malignant melanoma); assay: Calcein AM cytotoxicity assay, G-361; assay type: cell-based; settings: 72 hours incubation
Text: as §1, §2, §3, §4

Human lymphocytes = assay: Immunosuppressive activity, 3H-thymidine incorporation in concanavalin A activated lymphocytes; assay type: cell-based; settings: 72 hours, [3H]-TdR incorporation, read-out: Human lymphocytes ED50
Text: One of the most important parameters of specific cellular immunity is the proliferative response of lymphocytes to antigens or polyclonal mitogens. The majority of normal mammalian peripheral lymphocytes comprise resting cells. Antigens or nonspecific polyclonal mitogens have the capacity to activate lymphoid cells and this is accompanied by dramatic changes of intracellular metabolism (mitochondrial activity, protein synthesis, nucleic acids synthesis, formation of blastic cells and cellular proliferation). […] Variety of in vitro assays was developed to measure proliferative response of lymphocytes. The most commonly used is ^3H-thymidine incorporation method.
During cell proliferation, DNA has to be replicated before the cell is divided into two daughter cells. This close association between cell doublings and DNA synthesis is very attractive for assessing cell proliferation. If labelled DNA precursors are added to the cell culture, cells that are about to divide incorporate the labelled nucleotide into their DNA. Traditionally, those assays usually involve the use of radiolabelled nucleosides, particularly tritiated thymidine ([^3H]-TdR). The amount of [^3H]-TdR incorporated into the cellular DNA is quantified by liquid scintillation counting.
Human heparinized peripheral blood was obtained from healthy volunteers by cubital vein punction. The blood was diluted in PBS (1:3) and mononuclear cells were separated by centrifugation in Ficoll-Hypaque density gradient (Pharmacia, 1.077 g/ml) at 2200 rpm for 30 minutes. Following centrifugation, lymphocytes were washed in PBS and resuspended in cell culture medium (RMPI 1640, 2 mM glutamine, 100 U/ml penicillin, 100 μg/ml streptomycin, 10% fetal calf serum and sodium bicarbonate).
The cells were diluted at target density of 1.100.000 cells/ml and were added by pipette (180 μl) into 96-well microtiter plates. Four-fold dilutions of the intended test concentration were added at time zero in 20 μl aliquots to the microtiter plate wells. Usually, test compound was evaluated at six 4-fold dilutions. In routine testing, the highest well concentration was 266.7 μM. All drug concentrations were examined in duplicates. All wells with exception of unstimulated controls were activated with 50 μl of concanavalin A (25 μg/ml). Incubations of cells with test compounds lasted for 72 hours at 37° C., in 5% CO2 atmosphere and 100% humidity. At the end of incubation period, the cells were assayed by using the [^3H]-TdR:
Cell cultures were incubated with 0.5 μCi (20 μl of stock solution 500 μCi/ml) per well for 6 hours at 37° C. and 5% CO2. The automated cell harvester was used to lyse cells in water and adsorb the DNA onto glass-fiber filters in the format of microtiter plate. The DNA incorporated [^3H]-TdR was retained on the filter while unincorporated material passes through. The filters were dried at room temperature overnight, sealed into a sample bag with 10-12 ml of scintillant. The amount of [^3H]-TdR present in each filter (in cpm) was determined by scintillation counting in a Betaplate liquid scintillation counter. The effective dose of immunosuppressant (ED) was calculated using the following equation: ED=(CCPMdrug exposed well/mean CCPMcontrol wells)×100%. The ED50 value, the drug concentration inhibiting proliferation of 50% of lymphocytes, was calculated from the obtained dose response curves.
To evaluate immunosuppressive activity of substituted adenines, their ability to inhibit polyclonal mitogen induced proliferation of normal human lymphocytes was analyzed (Table 4). […] Effective immunosuppressive dose of new derivatives under in vitro conditions was close to 10-40 μM.

EC50 (Human lymphocytes) [µM] | SMILES | Activity (%) [10^−5 mol · l^−1 KR = 100%] [1] [%] | Concentration with highest activity [1] | GI50 [2] [µM] | GI50 ([3]; 72 hours incubation) [µM] | GI50 [4] [µM] | GI50 (MCF-7 (breast carcinoma)) [µM] | GI50 [5] [µM] | GI50 ([6]; 72 hours incubation) [µM] | GI50 [7] [µM] | GI50 ([3]; Homo sapiens, K562, 72 hours incubation) [µM] | GI50 ([4]; Homo sapiens) [µM] | GI50 (MCF-7 (breast carcinoma); Homo sapiens) [µM] | GI50 ([5]; Homo sapiens, Fibroblast) [µM] | GI50 ([6]; Homo sapiens, HL-60, 72 hours incubation) [µM] | GI50 ([7]; Homo sapiens) [µM]
 | COc1cccc(CNc2ncnc3c2ncn3[C@@H]2O[C@H](COP(=O)(O)O)[C@@H](O)[C@H]2O)c1 [Compound 16, 6-(3-methoxybenzylamino)purine riboside-5′-monophosphate] | 102 ± 1 | 10^−6 mol · l^−1 | 7.6 | > 167 | > 167 | > 167 | > 167 | 4.9 | > 167 |  |  |  |  |  | 
 | O=P(O)(O)OC[C@H]1O[C@@H](n2cnc3c(NCc4ccc(O)cc4)ncnc32)[C@H](O)[C@@H]1O [Compound 23, 6-(4-hydroxybenzylamino)purine riboside-5′-monophosphate] |  |  | 39.7 | > 167 | > 167 | > 167 | > 167 | 9.5 | > 167 |  |  |  |  |  | 
 | C/C(=C\CNc1ncnc2c1ncn2[C@@H]1O[C@H](CO)[C@@H](O)[C@H]1O)CO [zeatin riboside, reference compound] |  |  | > 167 | > 167 | > 167 | > 167 | > 167 | > 167 | > 167 |  |  |  |  |  | 
12.8 | O=P(O)(O)OC[C@H]1O[C@@H](n2cnc3c(NCc4cccc(O)c4)ncnc32)[C@H](O)[C@@H]1O [Compound 22, 6-(3-hydroxybenzylamino)purine riboside-5′-monophosphate] |  |  | 51.9 | > 167 | > 167 | > 167 | > 167 | 23.7 | > 167 |  |  |  |  |  | 
11.5 | O=P(O)(O)OC[C@H]1O[C@@H](n2cnc3c(NCc4cccc(F)c4)ncnc32)[C@H](O)[C@@H]1O [Compound 2, 6-(3-fluorobenzylamino)purine riboside-5′-monophosphate] | 103 ± 6 | 10^−5 mol · l^−1 | 4 | 7 | > 167 | 16.6 | > 167 | 0.92 | 15.7 |  |  |  |  |  | 
 | COc1ccccc1CNc1ncnc2c1ncn2[C@@H]1O[C@H](COP(=O)(O)O)[C@@H](O)[C@H]1O [Compound 15, 6-(2-methoxybenzylamino)purine riboside-5-monophosphate] | 108 ± 1 | 10^−5 mol · l^−1 | 3.2 | 11.2 | 21.2 | > 167 | > 167 | 2.3 | > 167 |  |  |  |  |  | 
 | O=P(O)(O)OC[C@H]1O[C@@H](n2cnc3c(NCc4cc(Cl)ccc4O)ncnc32)[C@H](O)[C@@H]1O [Compound 47, 6-(2-hydroxy-5-chlorobenzylamino)purine riboside-5′-monophosphate] |  |  | 0.6 | 15.7 | 10.6 | 18 | 63.4 | 0.47 | 12.5 |  |  |  |  |  | 
 | Nc1ncnc2c1ncn2[C@@H]1O[C@H](CO)[C@@H](O)[C@H]1O [adenosine] |  |  | > 167 |  |  |  |  |  |  | > 167 | > 167 | > 167 | > 167 | > 167 | > 167
